Measured values taken from patent publication US9963506B2, “Human-mouse chimeric anti-CD147 antibody with non-fucosylated glycosylation” (Fourth Military Medical University, priority 2015, dated 2018).

Assays:
CD147^+ A549 cells = biological target: T1, CD147^+ A549 cells (Homo sapiens, UniProt P35613); experiment: Antigen-binding activity by flow cytometry
T1 construct: endogenous in cells; host or cells: A549 (human lung cancer cell line)
T1 sequence (P35613 22-269 isoform P35613-2 limits assumed): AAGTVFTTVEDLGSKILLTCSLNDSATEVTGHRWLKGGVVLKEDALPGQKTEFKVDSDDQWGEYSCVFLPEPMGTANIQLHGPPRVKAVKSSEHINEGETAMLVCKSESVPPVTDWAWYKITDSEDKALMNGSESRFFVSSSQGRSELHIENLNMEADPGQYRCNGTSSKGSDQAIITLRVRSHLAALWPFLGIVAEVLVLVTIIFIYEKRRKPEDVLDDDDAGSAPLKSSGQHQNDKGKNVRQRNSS
Description: The antibody concentration is 0.001 μg/mL, 0.01 μg/mL, 0.1 μg/mL, 1 μg/ml and 10 μg/mL, respectively.
A549 cells (10^6 cells) were incubated with the Metuzumab (HcHAb18) and cHAb18 antibody, respectively, in PBS with 0.1% BSA at 4° C. for 1 h. After three washes in PBS with 0.1% BSA, cells were incubated with the FITC-conjugated Rabbit anti-Human IgG Fc Secondary Antibody (Pierce) at 4° C. in the dark for 45 min. Cells were then washed three times and suspended in PBS for analysis using a FACS Calibur flow cytometer (BD, New Jersey, U.S.). Relative antigen expression is reported as median fluorescence intensity (MFI).

NCI-H520 cells = experiment: Subcutaneous xenograft model, tumor growth inhibition; type: in vivo, SCID mice; details: tail vein
Description: Mice injected with NCI-H520 cells subcutaneously in the right dorsal flank were treated by intravenous saline; 2 mg/kg Cisplatin and 100 mg/kg Gemcitabine; Metuzumab infusion at 2 mg/kg, 10 mg/kg and 30 mg/kg; combination of 10 mg/kg Metuzumab with 2 mg/kg Cisplatin and 100 mg/kg Gemcitabine; wherein the antibodies were injected twice weekly for 3 week consecutively, while the chemotherapeutic agents were injected once a week for 3 weeks consecutively. The tumors were measured twice a week.
Animals were housed in specific pathogen-free (SPF) condition. For the localized subcutaneous xenograft mouse model, 1×10^6 NCI-H520 or A549 cells, suspended in Hank's balanced salt solution were implanted in the right dorsal flank of male SCID mice (6-8 week old). When tumors reached a mean volume of 100 mm^3, mice were randomized into treatment cohorts (n=10 mice per group). Mice were grouped for different treatments, including Metuzumab treatment groups treated with 2 mg/kg, 10 mg/kg and 30 mg/kg Metuzumab; chemistry treatment group treated with 2 mg/kg Cisplatin and 100 mg/kg Gemcitabine; combination treatment group treated with 10 mg/kg Metuzumab with 2 mg/kg Cisplatin and 100 mg/kg Gemcitabine, or saline (control group) via tail vein, respectively. Antibody injections were administered twice weekly, for 3 weeks consecutively; chemotherapeutic agents were administered once a week, for 3 weeks consecutively. Tumor size was measured twice each week for the duration of the study using calipers. Tumor volumes were determined using the following formula: […]. Antitumor activity was assessed by calculating inhibition ratio of tumor volumes (IRTV) based on medians by using following formula: [1−average (Ttreatment (day x)−Ttreatment (day 0))/average (Tcontrol (day x)−Tcontrol (day 0))]×100%.

Q: Which “CD147-binding ability, Metuzumab compared with cHAb18” value (CD147^+ A549 cells; FIG. 4) does the source give for “Metuzumab: human-mouse chimeric anti-CD147 IgG1, heavy chain SEQ ID NO: 4, light chain SEQ ID NO: 3, Mannose-5 glycoform lacking fucose and xylose” here?
A: similar

Q: And the “Binding to CD147^+ A549 cells” value (CD147^+ A549 cells; FIG. 4, 0.001-10 μg/mL)?
A: bound

Q: What about the “inhibition ratio of tumor volumes (IRTV)” value (NCI-H520 cells; 2 mg/kg twice weekly for 3 weeks) of the same substance?
A: 49.53%

Q: And the “inhibition ratio of tumor volumes (IRTV)” value (NCI-H520 cells; 10 mg/kg twice weekly for 3 weeks)?
A: 53.34%

Q: And the “inhibition ratio of tumor volumes (IRTV)” value (NCI-H520 cells; 30 mg/kg twice weekly for 3 weeks)?
A: 57.75%
